Experimental data taken from patent publication US20060014197A1, “In vivo screening methods for identifying inhibitors of RNA polymerases” (priority 2004, published 2006).

Tests used:
resident RNAPII = biological target: T1, resident RNAPII (Homo sapiens, UniProt P24928); assay: Tet-ON GFP reporter assay in transfected eukaryotic cells, no amanitin-resistant RPB1 expressed; assay type: cell-based; conditions: human HeLa or 293 cells, amanitin added, doxycycline induction, 48 hours; FIG. 7B
T1 construct: endogenous in cells; host or cells: human HeLa or 293 cells

[1] = biological target: T2, amanitin-resistant RNAPII (human RPB1 N792D) (Homo sapiens, UniProt P24928, N792D); assay: Tet-ON GFP reporter assay in transfected eukaryotic cells expressing amanitin-resistant RPB1; assay type: cell-based; conditions: human HeLa or 293 cells with plasmid-expressed amanitin-resistant RPB1, amanitin added, doxycycline induction, 48 hours; FIG. 7B
T2 construct: expressed in transfected cells; host or cells: human HeLa or 293 cells transfected with the RPB1 plasmid and pGFP

CC[C@H](C)[C@@H]1NC(=O)CNC(=O)[C@@H]2Cc3c([nH]c4cc(O)ccc34)[S+]([O-])C[C@@H](NC(=O)CNC1=O)C(=O)N[C@@H](CC(N)=O)C(=O)N1C[C@H](O)C[C@H]1C(=O)N[C@@H]([C@@H](C)[C@@H](O)CO)C(=O)N2 (stereo partly drawn) [amanitin, alpha-amanitin]
GFP fluorescent signal (flow cytometer) (resident RNAPII): no fluorescent signal is observed
GFP fluorescent signal (flow cytometer) [1]: results in fluorescent signal
